Results on two compounds are retold here after ChEMBL document CHEMBL1152527, “Tessaric acid derivatives induce G2/M cell cycle arrest in human solid tumor cell lines” (2009).

Active and inactive are the calls of the source. No cut-off for these calls is given here.

Common to all, as to assay type: functional
In experiment [1] the test system is WiDr. Put plainly: Growth inhibition of human WiDr cells after 48 hrs by sulforhodamine B assay. (In SRB staining, fixed cells bind dye roughly in proportion to their protein.)
The subject of experiment [2] is HeLa. The experiment in a line: Growth inhibition of human HeLa cells after 48 hrs by sulforhodamine B assay.
Experiment [3] relates to WiDr. Put plainly: Cell cycle arrest in human WiDr cells assessed as minor accumulation at S phase at 5 to 20 uM after 24 hrs by propidium iodide staining-based FACS analysis. On the technique in general: A flow cytometer gives signals particle by particle.
Experiment [4] has as its system SW1573. The experiment in a line: Cell cycle arrest in human SW1573 cells assessed as minor accumulation at S phase at 5 to 20 uM after 24 hrs by propidium iodide staining-based FACS analysis.
For experiment [5], the system named is WiDr. The experiment in a line: Cell cycle arrest in human WiDr cells assessed as minor accumulation at G2/M phase at 5 to 20 uM after 24 hrs by propidium iodide staining-based FACS analysis.
Experiment [6] deals with SW1573. The experiment in a line: Growth inhibition of human SW1573 cells after 48 hrs by sulforhodamine B assay. To be noted: SW1573, 48 h.
The next experiment relates to HBL-100. Put plainly: Growth inhibition of human HBL100 cells after 48 hrs by sulforhodamine B assay. Particulars: HBL-100, 48 h.
The test system of the next experiment is A2780. The experiment in a line: Growth inhibition of human A2780 cells after 48 hrs by sulforhodamine B assay. Particulars: A2780, 48 h.
The subject of experiment [7] is T47D. The experiment in a line: Growth inhibition of human T47D cells after 48 hrs by sulforhodamine B assay.
For experiment [8], the system named is T47D. The experiment in a line: Cell cycle arrest in human T47D cells assessed as minor accumulation at S phase at 5 to 20 uM after 24 hrs by propidium iodide staining-based FACS analysis.
The test system of experiment [9] is T47D. The experiment in a line: Cell cycle arrest in human T47D cells assessed as minor accumulation at G2/M phase at 5 to 20 uM after 24 hrs by propidium iodide staining-based FACS analysis.
The subject of experiment [10] is HeLa. The experiment in a line: Cell cycle arrest in human HeLa cells assessed as minor accumulation at G2/M phase at 5 to 20 uM after 24 hrs by propidium iodide staining-based FACS analysis.
Experiment [11] relates to HeLa. Put plainly: Cell cycle arrest in human HeLa cells assessed as minor accumulation at S phase at 5 to 20 uM after 24 hrs by propidium iodide staining-based FACS analysis.
Experiment [12] relates to SW1573. Put plainly: Cell cycle arrest in human SW1573 cells assessed as minor accumulation at G2/M phase at 5 to 20 uM after 24 hrs by propidium iodide staining-based FACS analysis.
For experiment [13], the system named is WiDr. Put plainly: Cell cycle arrest in human WiDr cells assessed as increase in accumulation at sub G0 phase at 3 to 6 uM treated for 24 hrs measured after 24 hrs of drug washout by propidium iodide staining-based FACS analysis.
The subject of experiment [14] is T47D. The experiment in a line: Cell cycle arrest in human T47D cells assessed as decrease in accumulation at S phase at 6 uM after 24 hrs by propidium iodide staining-based FACS analysis.
Experiment [15] deals with HeLa. Put plainly: Cell cycle arrest in human HeLa cells assessed as accumulation at G2/M phase at 3 uM after 24 hrs by propidium iodide staining-based FACS analysis.
In experiment [16] the test system is SW1573. Put plainly: Cell cycle arrest in human SW1573 cells assessed as decrease in accumulation at S phase at 3 uM after 24 hrs by propidium iodide staining-based FACS analysis.
Experiment [17] deals with T47D. The experiment in a line: Cell cycle arrest in human T47D cells assessed as accumulation at G2/M phase at 6 uM after 24 hrs by propidium iodide staining-based FACS analysis.
The subject of experiment [18] is SW1573. Put plainly: Cell cycle arrest in human SW1573 cells assessed as accumulation at G2/M phase at 6 uM after 24 hrs by propidium iodide staining-based FACS analysis.
For experiment [19], the system named is SW1573. Put plainly: Cell cycle arrest in human SW1573 cells assessed as accumulation at S phase at 6 uM after 24 hrs by propidium iodide staining-based FACS analysis.
Experiment [20] relates to HeLa. Put plainly: Cell cycle arrest in human HeLa cells assessed as accumulation at S phase at 6 uM after 24 hrs by propidium iodide staining-based FACS analysis.
The test system of experiment [21] is HeLa. Put plainly: Cell cycle arrest in human HeLa cells assessed as decrease in accumulation at G0/G1 phase at 6 uM after 24 hrs by propidium iodide staining-based FACS analysis.
Experiment [22] deals with T47D. Put plainly: Cell cycle arrest in human T47D cells assessed as increase in accumulation at sub G0 phase at 3 to 6 uM treated for 24 hrs measured after 24 hrs of drug washout by propidium iodide staining-based FACS analysis.
Experiment [23] relates to HeLa. The experiment in a line: Cell cycle arrest in human HeLa cells assessed as decrease in accumulation at S phase at 3 uM after 24 hrs by propidium iodide staining-based FACS analysis.
For experiment [24], the system named is SW1573. Put plainly: Cell cycle arrest in human SW1573 cells assessed as accumulation at G2/M phase at 3 uM after 24 hrs by propidium iodide staining-based FACS analysis.
Experiment [25] has as its system WiDr. The experiment in a line: Cell cycle arrest in human WiDr cells assessed as decrease in accumulation at S phase at 6 uM after 24 hrs by propidium iodide staining-based FACS analysis.
Experiment [26] has as its system SW1573. Put plainly: Cell cycle arrest in human SW1573 cells assessed as decrease in accumulation at G0/G1 phase at 6 uM after 24 hrs by propidium iodide staining-based FACS analysis.
The subject of experiment [27] is WiDr. The experiment in a line: Cell cycle arrest in human WiDr cells assessed as accumulation at G2/M phase at 6 uM after 24 hrs by propidium iodide staining-based FACS analysis.
Experiment [28] relates to HeLa. Put plainly: Cell cycle arrest in human HeLa cells assessed as accumulation at G2/M phase at 6 uM after 24 hrs by propidium iodide staining-based FACS analysis.

Regarding `C=C(C=O)[C@@H]1CC[C@@]2(C)CCC[C@@](C)(O)[C@@H]2C1` [ILICIC ALDEHYDE], the GI50 with WiDr [1] (read-out: GI50) is 12 µM; in the experiment on WiDr [1] (read-out: pGI50 (converted)), 4.92 µM; in the experiment on HeLa [2] (read-out: GI50) it was 16 µM; in the experiment on HeLa [2] (read-out: pGI50 (converted)), 4.8 µM; in the experiment with SW1573 [6] (read-out: GI50), 2 µM; with HBL-100 (read-out: GI50), 2.8 µM. Moreover, the GI50 with HBL-100 (read-out: pGI50 (converted)) was 5.56 µM; in the experiment with A2780 (read-out: GI50), 1.8 µM; in the experiment on A2780 (read-out: pGI50 (converted)) it was 5.58 µM; with T47D [7] (read-out: GI50), 6.5 µM; in the experiment on T47D [7] (read-out: pGI50 (converted)) it was 5.19 µM. Moreover, the result in the experiment on WiDr [3], with SW1573 [4], in the experiment on WiDr [5], with T47D [8], in the experiment with T47D [9] and in the experiment on HeLa [10] was Active. The result in the experiment on HeLa [11] and in the experiment on SW1573 [12] was Active. Also, the pGI50 (as a rule, the negative decadic logarithm of the GI50, by convention in mol/L) in the experiment on SW1573 [6] amounted to 5.72.
Consider `C=C(C(=O)OC)[C@@H]1CCC2=CC(=O)C[C@H](C)[C@@]2(C)C1` [TESSARIC ACID METHYL ESTER], for which the result in the experiment on WiDr [13], with T47D [14], in the experiment with HeLa [15], in the experiment with SW1573 [16], in the experiment on T47D [17] and with SW1573 [18] was Active. In addition, the outcome in the experiment on SW1573 [19], in the experiment with HeLa [20], in the experiment on HeLa [21], with T47D [22], in the experiment on HeLa [23] and in the experiment on SW1573 [24] was Active. Further, the result with WiDr [25], in the experiment with SW1573 [26], in the experiment on WiDr [27] and in the experiment with HeLa [28] was Active. The pGI50 stood at 5.74 with WiDr [1], 5.35 in the experiment on HeLa [2], 5.63 with HBL-100 and 5.75 with A2780. Further, the GI50 with WiDr [1] (read-out: GI50) was 2 µM; in the experiment with HeLa [2] (read-out: GI50) it was 4.5 µM; in the experiment on SW1573 [6] (read-out: GI50), 3.8 µM; in the experiment with SW1573 [6] (read-out: pGI50 (converted)) it was 5.44 µM; with HBL-100 (read-out: GI50) it was 2.4 µM; in the experiment on A2780 (read-out: GI50), 1.9 µM. The results for the GI50 in the experiment on T47D [7] (read-out: GI50) and with T47D [7] (read-out: pGI50 (converted)) were 2.4 µM and 5.62 µM, respectively.
